According to US20230365546A1, “5-SUBSTITUTED INDOLE 3-AMIDE DERIVATIVES, PREPARATION METHOD AND USE THEREOF” (ORIGIANT PHARMACEUTICAL CO., LTD, priority 2020, published 2023):

Key:
[1] = target: CaMKIIδ(h) (Homo sapiens (Human), UniProt Q13557); test: Kinase Profiler 10 μM panel
Experimental: (§1) In vitro kinase assays were conducted using Kinase Profiler services provided by Eurofins. The experimental method was as follows: the small molecule compound to be tested (0.001-10 μM), the protein kinase to be tested were incubated with a buffer containing substrate, 10 mM magnesium acetate, and [γ-^33P-ATP], the reaction was started by adding Mg\TPmix, after incubation for a period of time at room temperature, a 3% phosphate solution was added to the buffer to stop the reaction. Subsequently, 10 μL of the reaction mixture was quantitatively pipetted onto P30 filter paper, which was washed three times with 75 mM phosphate solution and then once with methanol. The P30 filter paper was air-dried and scintillation fluid was added for scintillation counting.

[2] = target: hERG potassium channel (Homo sapiens (Human), UniProt Q12809); test: cell-based
Experimental: Stable HEK-hERG cells were washed with DPBS, digested with Trypsin or Tryple solution, resuspended in culture medium, and stored in centrifuge tubes for use.
hERG currents were recorded with a whole-cell patch clamp technique. The cell suspension was placed in a small petri dish and placed on an objective table of an inverted microscope. After attachment, the cells were perfused with extracellular fluid at a recommended flow rate of 1-2 mL/min. The glass microelectrode was pulled in two steps by a microelectrode puller, and the resistance in electrode fill solution was 2-5 MΩ.
After establishing the whole-cell recording mode, the clamping potential was kept at −80 mV. […] This set of pulses was repeated every 15 seconds throughout the experiment.
After the current was stable, continuous extracellular perfusion administration was conducted from low concentration to high concentration. The perfusion was continued from a low concentration until the pharmaceutical effect was stable, and then the perfusion of the next concentration was conducted.
if it was unstable, this concentration data would not be taken.
IC50 values were obtained by fitting the Hill equation (if applicable): […]

[3] = target: PKCϵ(h) (Homo sapiens (Human), UniProt Q02156); test: Kinase Profiler 10 μM panel
Experimental: as §1

[4] = tested on: TNF α-induced SIRS; test: TNF α-induced mouse SIRS model; format: in vivo
Experimental: TNF α formulated in sterile normal saline was administered at a dose of 500 μg/kg by tail vein injection for modeling. The body temperature of the mice was measured by an infrared electric thermometer. The orally-administrated vehicle was 25% castor oil in ethanol and 75% normal saline. Compounds 94 and 46 and RIPK1 positive compound GSK2982772 were administered orally before modeling with a dose of 40 mg/kg. Body temperature and the survival of mice were recorded every hour and recorded for 24 h and 48 h after 11 h.
This experiment established a TNF α-induced SIRS mouse model to evaluate the in vivo activity of compounds of the present invention. TNF α formulated in sterile normal saline was administered to mice at a dose of 500 μg/kg by tail vein injection for modeling. Since the measurement of rectal temperature would cause mechanical injury to mice and may interfere with the experimental results, an infrared electric thermometer was used to measure the body temperature of mice and the survival condition was observed. Compounds 94 and 46 were administered at a dose of 40 mg/kg once prior to modeling. The Vehicle group was given the corresponding vehicle control.

[5] = tested on: RIPK1 autophosphorylation, phosphorylation of RIPK3 and MLKL; test: Regulation of RIPK1 signaling pathway (Western blot); format: cell-based; conditions: TNF α/Smac mimetic/Z-VAD-FMK induced, FIG. 4
From the text: TNF α was purchased from PeproTech Inc., Smac mimetic and Z-VAD-FMK was purchased from Selleck Inc., RIPA lysis buffer was purchased from Beyotime Institute of Biotechnology, cocktail was purchased from MedChemExpress (MCE) Limited, PMSF protease inhibitors, sodium dodecylsulfonate SDS, and glycine were purchased from Sigma Inc., acrylamide, tris(hydroxymethyl)aminomethane Tris, ammonium persulfate APS and N,N,N′,N′-tetramethyl ethylenediamine TEMED were purchased from Wuhan Servicebio Technology Co., Ltd.
Extraction of total cellular protein: after the cells were treated by adding the corresponding concentration of Compounds 94 and 46 or blank vehicle to the cell supernatant and induced with TNF α/Smac mimetic/Z-VAD-FMK combination for a certain period of time, the supernatant was discarded, followed by washing three times with pre-cooled PBS or normal saline, then an appropriate volume of RIPA lysis buffer (containing 1% cocktail and 1% PMSF protease inhibitor) was added, the mixture was immediately placed on ice horizontally for lysis of 15 min, then the cell lysis buffer was scraped with a scraper and transferred to a 1.5 ml EP tube, and the cells were disrupted with a sonicator. The tubes were then centrifuged in a low temperature high speed centrifuge (12000 rpm, 15 min) to remove cell debris. […]

[6] = target: PKR(h) (Homo sapiens (Human), UniProt P19525); test: Kinase Profiler 10 μM panel
Experimental: as §1

[7] = tested on: DSS-induced colitis; test: DSS-induced mouse IBD model
Experimental: Female C57BL/6 mice weighing 17-20 g were used. […] Fresh DSS solution was changed on Days 2, 4, and 6, respectively. […] The Control group was given normal drinking water daily and corresponding vehicles orally starting on day 7. Body weights and survival rates of mice were recorded daily. Survival curves were fitted using Graphpad Prism 5.0 software. Mice (2/group) were sacrificed on day 12 and observed for changes in colon length.

Chain of hERG potassium channel (Q12809 whole entry): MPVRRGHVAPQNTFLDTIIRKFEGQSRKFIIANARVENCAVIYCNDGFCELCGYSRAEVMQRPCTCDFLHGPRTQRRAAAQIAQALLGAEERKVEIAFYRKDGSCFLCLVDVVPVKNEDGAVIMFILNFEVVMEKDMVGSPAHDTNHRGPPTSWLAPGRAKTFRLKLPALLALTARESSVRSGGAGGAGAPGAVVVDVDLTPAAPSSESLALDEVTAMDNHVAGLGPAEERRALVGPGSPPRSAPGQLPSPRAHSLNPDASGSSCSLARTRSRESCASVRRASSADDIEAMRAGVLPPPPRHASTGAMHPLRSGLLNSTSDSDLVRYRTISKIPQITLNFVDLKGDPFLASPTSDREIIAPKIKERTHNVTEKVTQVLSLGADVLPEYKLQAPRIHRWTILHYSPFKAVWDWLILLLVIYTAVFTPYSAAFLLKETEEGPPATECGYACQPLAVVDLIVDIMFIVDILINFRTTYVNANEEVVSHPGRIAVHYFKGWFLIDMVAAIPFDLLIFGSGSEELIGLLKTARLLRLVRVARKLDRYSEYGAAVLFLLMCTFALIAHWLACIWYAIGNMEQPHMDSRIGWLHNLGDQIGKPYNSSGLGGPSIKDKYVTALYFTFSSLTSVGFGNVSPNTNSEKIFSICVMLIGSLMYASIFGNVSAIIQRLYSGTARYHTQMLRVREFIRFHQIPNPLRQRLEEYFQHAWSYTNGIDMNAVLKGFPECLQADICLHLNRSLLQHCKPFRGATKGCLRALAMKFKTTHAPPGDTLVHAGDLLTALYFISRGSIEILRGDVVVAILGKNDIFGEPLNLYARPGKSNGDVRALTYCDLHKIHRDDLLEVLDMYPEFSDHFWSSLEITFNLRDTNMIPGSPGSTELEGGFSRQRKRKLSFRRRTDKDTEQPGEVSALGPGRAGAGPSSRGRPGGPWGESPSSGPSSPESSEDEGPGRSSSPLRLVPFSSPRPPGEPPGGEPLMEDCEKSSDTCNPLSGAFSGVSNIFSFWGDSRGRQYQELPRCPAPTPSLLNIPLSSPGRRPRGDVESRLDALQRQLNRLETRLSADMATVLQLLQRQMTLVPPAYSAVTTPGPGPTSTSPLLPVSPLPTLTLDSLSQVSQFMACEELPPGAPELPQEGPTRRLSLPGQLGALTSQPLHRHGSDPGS
Chain of PKCϵ(h) (Q02156 whole entry): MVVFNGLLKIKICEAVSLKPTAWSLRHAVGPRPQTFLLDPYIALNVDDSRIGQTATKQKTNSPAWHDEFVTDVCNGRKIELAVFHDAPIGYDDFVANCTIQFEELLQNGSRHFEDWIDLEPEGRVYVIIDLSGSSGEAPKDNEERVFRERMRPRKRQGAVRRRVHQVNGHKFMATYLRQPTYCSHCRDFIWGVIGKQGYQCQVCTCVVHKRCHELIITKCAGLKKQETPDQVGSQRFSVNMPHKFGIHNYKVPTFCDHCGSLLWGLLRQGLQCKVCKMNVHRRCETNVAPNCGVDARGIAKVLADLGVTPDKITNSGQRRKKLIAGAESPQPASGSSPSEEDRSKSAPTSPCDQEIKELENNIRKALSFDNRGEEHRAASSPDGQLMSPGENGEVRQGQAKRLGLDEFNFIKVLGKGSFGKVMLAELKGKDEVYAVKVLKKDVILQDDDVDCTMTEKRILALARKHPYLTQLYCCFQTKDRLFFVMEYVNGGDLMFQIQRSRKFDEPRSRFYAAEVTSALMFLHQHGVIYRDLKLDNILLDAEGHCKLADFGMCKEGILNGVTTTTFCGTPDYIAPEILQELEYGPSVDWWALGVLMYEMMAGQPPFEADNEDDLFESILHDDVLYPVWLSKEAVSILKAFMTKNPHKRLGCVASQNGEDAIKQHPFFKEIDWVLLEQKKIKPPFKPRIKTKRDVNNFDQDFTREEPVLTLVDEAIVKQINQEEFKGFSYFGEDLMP
Chain of CaMKIIδ(h) (Q13557 whole entry): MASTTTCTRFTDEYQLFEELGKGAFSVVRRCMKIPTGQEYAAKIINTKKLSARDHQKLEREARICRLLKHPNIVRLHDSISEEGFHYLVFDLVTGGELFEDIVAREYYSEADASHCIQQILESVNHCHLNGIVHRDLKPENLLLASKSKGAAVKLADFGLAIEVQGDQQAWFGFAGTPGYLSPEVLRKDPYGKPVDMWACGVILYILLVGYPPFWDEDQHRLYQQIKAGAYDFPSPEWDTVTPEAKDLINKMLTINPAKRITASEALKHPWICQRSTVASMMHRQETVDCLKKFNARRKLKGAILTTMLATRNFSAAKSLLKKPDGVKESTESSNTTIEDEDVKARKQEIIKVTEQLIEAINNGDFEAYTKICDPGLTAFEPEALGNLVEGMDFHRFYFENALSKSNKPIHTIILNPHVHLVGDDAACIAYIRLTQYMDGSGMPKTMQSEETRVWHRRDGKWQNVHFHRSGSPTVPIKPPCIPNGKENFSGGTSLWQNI
Chain of PKR(h) (P19525 whole entry): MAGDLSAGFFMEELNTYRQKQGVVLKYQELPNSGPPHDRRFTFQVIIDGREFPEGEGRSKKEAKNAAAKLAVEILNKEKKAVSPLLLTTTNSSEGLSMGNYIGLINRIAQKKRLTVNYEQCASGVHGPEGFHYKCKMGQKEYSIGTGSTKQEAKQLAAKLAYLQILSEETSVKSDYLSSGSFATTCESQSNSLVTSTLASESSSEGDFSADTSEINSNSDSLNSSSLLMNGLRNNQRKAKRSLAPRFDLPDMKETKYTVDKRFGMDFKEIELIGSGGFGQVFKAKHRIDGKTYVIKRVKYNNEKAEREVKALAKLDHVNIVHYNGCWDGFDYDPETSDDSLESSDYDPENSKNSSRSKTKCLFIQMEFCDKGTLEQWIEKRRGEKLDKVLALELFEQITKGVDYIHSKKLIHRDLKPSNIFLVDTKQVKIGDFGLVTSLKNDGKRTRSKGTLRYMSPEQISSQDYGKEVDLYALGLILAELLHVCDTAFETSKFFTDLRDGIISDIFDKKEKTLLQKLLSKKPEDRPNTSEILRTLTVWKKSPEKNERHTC

| Structure (SMILES) | Inhibition ratio/% [1] [%] | IC50 [2] [µM] | Average inhibitory ratio on hERG potassium channel current ([2]; human, 30 μM) [%] | Inhibition ratio/% [3] [%] | Overall mortality ([4]; 40 mg/kg oral once before TNF α 500 μg/kg i.v., compared with Vehicle group) | Body temperature of mice ([4]; 40 mg/kg oral once before TNF α 500 μg/kg i.v., within 11 h) | Protective effect compared with positive drug ([4]; 40 mg/kg oral, vs GSK2982772 40 mg/kg) | Effect on necrotic signaling pathway (RIPK1 autophosphorylation, RIPK3 and MLKL phosphorylation) [5] | Inhibition ratio/% [6] [%] | Death of mice ([7]; 40 mg/kg oral from day 7 after 2.5% DSS) | Body weight of mice ([7]; 40 mg/kg oral from day 7 after 2.5% DSS, FIG. 6) | Colon length of mice ([7]; 40 mg/kg oral, sacrificed on day 12, FIG. 7) | Therapeutic effect compared with positive drug ([7]; 40 mg/kg oral, vs GSK3145095 40 mg/kg) | Inhibition ratio [1] [%] | Inhibition ratio [3] [%] | Inhibition ratio [6] [%] |
| --- | --- | --- | --- | --- | --- | --- | --- | --- | --- | --- | --- | --- | --- | --- | --- | --- |
| C[C@H](NC(=O)c1cn(C)c2ccc(-c3ccn4nc(NC(=O)C5CC5)nc4c3)cc12)c1cccc(F)c1 [Compound 94, (S)-5-(2-(cyclopropanecarboxamido)-[1,2,4]triazolo[1,5-a]pyridin-7-yl)-N-(1-(3-fluorophenyl)ethyl)-1-methyl-1H-indole-3-carboxamide] | −11 | > 30 | 3.40 | 35 | significantly reduced | relatively normal | better protective effect than positive drug GSK2982772 | affected the phosphorylation of RIPK3 and MLKL downstream of RIPK1 by inhibiting its autophosphorylation | 19 | no death by 14 days | gradual increase in body weight | basically equivalent to that of mice in Control group | better therapeutic effect than positive drug GSK3145095 |  |  |  |
| C[C@H](NC(=O)c1c[nH]c2ccc(-c3ccc4nc(NC(=O)C5CC5)sc4c3)cc12)c1cccc(F)c1 [Compound 34, (S)-5-(2-(cyclopropanecarboxamido)benzo[d]thiazol-6-yl)-N-(1-(3-fluorophenyl)ethyl)-1H-indole-3-carboxamide] |  |  |  |  |  |  |  |  |  |  |  |  |  | 22 | −8 | 11 |
